Laboratory results reported in patent publication US9481676B2, “Azepino[4,5-B]indoles and methods of use” (Medivation Technologies, Inc., priority 2008, dated 2016).

Assays:
[1] = target: T1, human recombinant serotonin (5-Hydroxytryptamine) 5-HT2C receptor (Homo sapiens, UniProt P28335); assay: Serotonin 5-HT2C radioligand binding ([3H]Mesulergine); details: compound at 1 μM; read-out: Serotonin (1 μM) 5-HT2C, percent inhibition of specific binding
T1 construct: expressed in transfected cells; host or cells: CHO-K1 cells
T1 sequence (P28335 33-458): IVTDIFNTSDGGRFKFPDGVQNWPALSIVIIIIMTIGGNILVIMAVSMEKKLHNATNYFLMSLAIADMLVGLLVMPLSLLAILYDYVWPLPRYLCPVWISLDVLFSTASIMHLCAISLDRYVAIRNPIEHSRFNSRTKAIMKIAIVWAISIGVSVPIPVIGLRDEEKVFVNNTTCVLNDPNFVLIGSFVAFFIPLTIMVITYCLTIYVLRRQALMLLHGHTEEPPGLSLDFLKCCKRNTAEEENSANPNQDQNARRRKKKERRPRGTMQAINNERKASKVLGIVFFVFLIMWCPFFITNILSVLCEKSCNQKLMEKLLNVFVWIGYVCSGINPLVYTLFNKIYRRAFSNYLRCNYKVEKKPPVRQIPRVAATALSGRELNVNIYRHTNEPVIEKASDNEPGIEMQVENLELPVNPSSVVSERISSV
Description: To evaluate in radioligand binding assays the activity of compounds of the invention, human recombinant serotonin (5-Hydroxytryptamine) 5-HT2C receptor expressed in Chinese hamster ovary (CHO-K1) cells (Wolf, W. A. and Schutz, J. S., J. Neurochem. 69:1449, 1997) in a modified Tris-HCl buffer (50 mM Tris-HCl, pH 7.4, 0.1% Ascorbic Acid, 10 μM Pargyline) was used. Compounds of the invention were incubated with 1 nM [^3H]Mesulergine for 60 min. at 25° C. Non-specific binding was estimated in the presence of 1 μM Mianserin. Receptor proteins were filtered and washed, the filters were then counted to determine [^3H]Mesulergine specifically bound. Compounds were screened at 1 μM or lower, using 1% DMSO as vehicle. Biochemical assay results are presented as the percent inhibition of specific binding in Table 6.

[2] = target: T2, human recombinant serotonin (5-Hydroxytryptamine) 5-HT6 receptor (Homo sapiens, UniProt P50406); assay: Serotonin 5-HT6 radioligand binding ([3H]LSD); details: compound at 1 μM; read-out: Serotonin (1 μM) 5-HT6, percent inhibition of specific binding
T2 construct: expressed in transfected cells; host or cells: human HeLa cells
T2 sequence (P50406 whole entry): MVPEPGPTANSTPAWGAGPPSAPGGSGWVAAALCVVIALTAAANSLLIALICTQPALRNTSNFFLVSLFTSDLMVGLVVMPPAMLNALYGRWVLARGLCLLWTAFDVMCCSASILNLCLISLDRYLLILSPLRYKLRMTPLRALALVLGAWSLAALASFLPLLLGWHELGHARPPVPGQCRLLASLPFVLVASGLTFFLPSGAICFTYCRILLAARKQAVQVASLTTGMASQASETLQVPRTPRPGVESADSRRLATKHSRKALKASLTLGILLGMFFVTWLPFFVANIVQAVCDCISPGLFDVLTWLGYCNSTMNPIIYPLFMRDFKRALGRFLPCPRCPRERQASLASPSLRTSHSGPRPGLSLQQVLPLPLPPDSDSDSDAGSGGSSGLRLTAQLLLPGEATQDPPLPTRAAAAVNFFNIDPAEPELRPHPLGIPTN
Description: To evaluate in radioligand binding assays the activity of compounds of the invention, human recombinant serotonin (5-Hydroxytryptamine) 5-HT6 receptor expressed in human HeLa cells (Monsma, F. J. Jr. et al., Mol. Pharmacol. 43:320, 1993) in a modified Tris-HCl buffer (50 mM Tris-HCl, pH 7.4, 150 mM NaCl, 2 mM Ascorbic Acid, 0.001% BSA) was used. Compounds of the invention were incubated with 1.5 nM [3H]Lysergic acid diethylamide (LSD) for 120 min. at 37° C. Non-specific binding was estimated in the presence of 5 μM Serotonin (5-HT). Receptor proteins were filtered and washed, the filters were then counted to determine [3H]LSD specifically bound. Compounds were screened at 1 μM or lower, using 1% DMSO as vehicle. Biochemical assay results are presented as the percent inhibition of specific binding in Table 6.

[3] = target: T3, human recombinant dopamine D2L receptor (Homo sapiens, UniProt P14416); assay: Dopamine D2L radioligand binding ([3H]Spiperone); details: compound at 1 μM; read-out: Dopamine (1 μM) D2L, percent inhibition of specific binding
T3 construct: expressed in transfected cells; host or cells: CHO cells
T3 sequence (P14416 whole entry): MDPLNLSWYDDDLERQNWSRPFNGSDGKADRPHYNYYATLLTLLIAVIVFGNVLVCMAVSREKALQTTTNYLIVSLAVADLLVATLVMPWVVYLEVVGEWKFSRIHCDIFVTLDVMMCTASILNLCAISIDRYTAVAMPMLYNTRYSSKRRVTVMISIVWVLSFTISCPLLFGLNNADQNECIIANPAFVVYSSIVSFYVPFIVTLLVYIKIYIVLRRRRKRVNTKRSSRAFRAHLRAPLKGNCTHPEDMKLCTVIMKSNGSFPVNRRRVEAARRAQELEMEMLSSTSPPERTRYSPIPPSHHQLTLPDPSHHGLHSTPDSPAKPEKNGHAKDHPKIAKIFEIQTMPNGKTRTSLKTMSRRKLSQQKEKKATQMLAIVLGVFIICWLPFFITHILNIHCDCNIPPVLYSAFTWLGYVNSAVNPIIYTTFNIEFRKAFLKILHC
Description: To evaluate in radioligand binding assays the activity of compounds of the invention, human recombinant dopamine D2L receptor expressed in Chinese hamster ovary (CHO) cells (Grandy, D. K. et al. Proc. Natl. Acad. Sci. USA. 86:9762, 1989; Hayes, G. et al., Mol. Endocrinol. 6:920, 1992) in a modified Tris-HCl buffer (50 mM Tris-HCl, pH 7.4, 1.4 mM Ascorbic Acid, 0.001% BSA, 150 mM NaCl) was used. Compounds of the invention were incubated with 0.16 nM [^3H]Spiperone for 120 min. at 25° C. Non-specific binding was estimated in the presence of 10 μM Haloperidol. Receptor proteins were filtered and washed, the filters were then counted to determine [^3H]Spiperone specifically bound. Compounds were screened at 1 μM or lower, using 1% DMSO as vehicle. Biochemical assay results are presented as the percent inhibition of specific binding in Table 5.

[4] = target: T4, human recombinant serotonin (5-Hydroxytryptamine) 5-HT2A receptor (Homo sapiens, UniProt P28223); assay: Serotonin 5-HT2A radioligand binding ([3H]Ketanserin); details: compound at 1 μM; read-out: Serotonin (1 μM) 5-HT2A, percent inhibition of specific binding
T4 construct: expressed in transfected cells; host or cells: CHO-K1 cells
T4 sequence (P28223 whole entry): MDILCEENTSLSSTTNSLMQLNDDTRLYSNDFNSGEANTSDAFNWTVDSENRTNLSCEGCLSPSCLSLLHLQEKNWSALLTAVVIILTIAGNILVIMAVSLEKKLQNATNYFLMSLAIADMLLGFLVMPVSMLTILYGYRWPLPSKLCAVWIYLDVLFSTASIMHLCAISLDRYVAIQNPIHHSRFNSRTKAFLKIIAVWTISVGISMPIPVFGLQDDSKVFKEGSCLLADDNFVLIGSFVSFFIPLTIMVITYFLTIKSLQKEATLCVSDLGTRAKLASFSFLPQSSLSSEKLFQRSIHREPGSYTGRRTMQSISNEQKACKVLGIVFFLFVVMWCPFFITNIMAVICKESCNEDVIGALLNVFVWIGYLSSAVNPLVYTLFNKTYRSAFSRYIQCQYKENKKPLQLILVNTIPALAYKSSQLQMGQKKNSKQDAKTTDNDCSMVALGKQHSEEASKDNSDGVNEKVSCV
Description: To evaluate in radioligand binding assays the activity of compounds of the invention, human recombinant serotonin (5-Hydroxytryptamine) 5-HT2A receptor expressed in Chinese hamster ovary (CHO-K1) cells (Bonhaus, D. W. et al. Br. J. Pharmacol. 115:622, 1995; Saucier, C. and Albert, P. R., J. Neurochem. 68:1998, 1997) in a 50 mM Tris-HCl buffer, pH 7.4, was used. Compounds of the invention were incubated with 0.5 nM [^3H]Ketanserin for 60 min. at 25° C. Non-specific binding was estimated in the presence of 1 μM Mianserin. Receptor proteins were filtered and washed, the filters were then counted to determine [^3H]Ketanserin specifically bound. Compounds were screened at 1 μM or lower, using 1% DMSO as vehicle. Biochemical assay results are presented as the percent inhibition of specific binding in Table 6.

[5] = target: T5, human recombinant histamine H1 receptor (Homo sapiens, UniProt P35367); assay: Histamine H1 radioligand binding ([3H]Pyrilamine); details: compound at 1 μM; read-out: Histamine Binding (1 μM) H1, percent inhibition of specific binding
T5 construct: expressed in transfected cells; host or cells: CHO cells
T5 sequence (P35367 whole entry): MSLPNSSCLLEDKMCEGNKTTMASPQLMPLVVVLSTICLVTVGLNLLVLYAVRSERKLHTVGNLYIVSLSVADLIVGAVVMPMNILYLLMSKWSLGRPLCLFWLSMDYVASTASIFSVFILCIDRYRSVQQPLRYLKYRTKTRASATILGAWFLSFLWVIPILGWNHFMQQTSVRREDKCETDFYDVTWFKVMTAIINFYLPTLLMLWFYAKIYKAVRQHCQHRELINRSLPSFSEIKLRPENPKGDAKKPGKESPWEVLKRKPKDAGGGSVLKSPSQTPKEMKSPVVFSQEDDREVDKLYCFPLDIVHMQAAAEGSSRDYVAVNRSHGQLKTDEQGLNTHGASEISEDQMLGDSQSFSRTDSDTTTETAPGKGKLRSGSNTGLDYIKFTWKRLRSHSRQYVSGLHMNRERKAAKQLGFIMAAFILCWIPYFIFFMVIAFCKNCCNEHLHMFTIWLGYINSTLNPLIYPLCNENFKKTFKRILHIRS
Description: To evaluate in radioligand binding assays the activity of compounds of the invention, human recombinant histamine H1 receptor expressed in Chinese hamster ovary (CHO) cells (De Backer, M. D. et al., Biochem. Biophys. Res. Comm. 197(3):1601, 1993) in a modified Tris-HCl buffer (50 mM Tris-HCl, pH 7.4, 2 mM MgCl2, 100 mM NaCl, 250 mM Sucrose) was used. Compounds of the invention were incubated with 1.2 nM [^3H]Pyrilamine for 180 min. at 25° C. Non-specific binding was estimated in the presence of 1 μM pyrilamine. Receptor proteins were filtered and washed, the filters were then counted to determine [^3H]Pyrilamine specifically bound. Compounds were screened at 1 μM or lower, using 1% DMSO as vehicle. Biochemical assay results are presented as the percent inhibition of specific binding in Table 6.

[6] = target: T6, human recombinant histamine H2 receptor (Homo sapiens, UniProt P25021); assay: Histamine H2 radioligand binding ([125I]Aminopotentidine); details: compound at 1 μM; read-out: Histamine Binding (1 μM) H2, percent inhibition of specific binding
T6 construct: expressed in transfected cells; host or cells: CHO-K1 cells
T6 sequence (P25021 whole entry): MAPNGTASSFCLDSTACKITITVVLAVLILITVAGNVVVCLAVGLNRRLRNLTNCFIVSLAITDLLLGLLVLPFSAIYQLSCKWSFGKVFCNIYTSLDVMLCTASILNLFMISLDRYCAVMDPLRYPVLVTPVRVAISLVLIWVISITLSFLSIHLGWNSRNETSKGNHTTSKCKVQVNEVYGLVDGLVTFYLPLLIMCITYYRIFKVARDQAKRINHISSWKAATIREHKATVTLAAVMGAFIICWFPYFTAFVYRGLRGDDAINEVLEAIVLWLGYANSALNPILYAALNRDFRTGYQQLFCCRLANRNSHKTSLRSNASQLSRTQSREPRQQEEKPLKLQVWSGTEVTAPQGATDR
Description: To evaluate in radioligand binding assays the activity of compounds of the invention, human recombinant histamine H2 receptor expressed in Chinese hamster ovary (CHO) K1 cells (Ruat, M., Proc. Natl. Acad. Sci. USA. 87(5):1658, 1990) in a 50 mM Phosphate buffer, pH 7.4 was used. Compounds of the invention were incubated with 0.1 nM [^125I]Aminopotentidine for 120 min. at 25° C. Non-specific binding was estimated in the presence of 3 μM Tiotidine. Receptor proteins were filtered and washed, the filters were then counted to determine [^125I]Aminopotentidine specifically bound. Compounds were screened at 1 μM or lower, using 1% DMSO as vehicle. Biochemical assay results are presented as the percent inhibition of specific binding in Table 6.

Row | Compound | inhibition at 1 µM [1] | inhibition at 1 µM [2] | inhibition at 1 µM [3] | inhibition at 1 µM [4] | inhibition at 1 µM [5] | inhibition at 1 µM [6]
1 | C/C(=C/n1c2c(c3cc(Cl)ccc31)CCN(C)CC2)c1ccccc1Cl [Compound No. 244, (Z)-9-chloro-6-(2-(2-chlorophenyl)prop-1-enyl)-3-methyl-1,2,3,4,5,6-hexahydroazepino[4,5-b]indole] | 101% | 103% | 43% | 100% | 102% | 99%
2 | COc1ccc(/C(C)=C/n2c3c(c4cc(Cl)ccc42)CCN(C)CC3)cc1 [Compound No. 160, (E)-9-chloro-1,2,3,4,5,6-hexahydro-6-(2-(4-methoxyphenyl)prop-1-enyl)-3-methylazepino[4,5-b]indole] | 103% | 99% | 17% | 94% | 87% | 91%
3 | C/C(=C\n1c2c(c3cc(Cl)ccc31)CCN(C)CC2)c1cccc(F)c1 [Compound No. 250, (E)-9-chloro-6-(2-(3-fluorophenyl)prop-1-enyl)-3-methyl-1,2,3,4,5,6-hexahydroazepino[4,5-b]indole] | 99% | 99% | 15% | 100% | 93% | 85%
4 | C/C(=C\n1c2c(c3cc(C)ccc31)CCN(C)CC2)c1ccccc1F [Compound No. 241, (E)-6-(2-(2-fluorophenyl)prop-1-enyl)-3,9-dimethyl-1,2,3,4,5,6-hexahydroazepino[4,5-b]indole] | 97% | 100% | 37% | 100% | 98% | 93%
5 | C/C(=C\n1c2c(c3cc(Cl)ccc31)CCN(C)CC2)c1ccccc1Cl [Compound No. 245, (E)-9-chloro-6-(2-(2-chlorophenyl)prop-1-enyl)-3-methyl-1,2,3,4,5,6-hexahydroazepino[4,5-b]indole] | 99% | 97% | 16% | 99% | 96% | 88%
6 | C/C(=C/n1c2c(c3cc(Cl)ccc31)CCN(C)CC2)c1cccc(F)c1 [Compound No. 249, (Z)-9-chloro-6-(2-(3-fluorophenyl)prop-1-enyl)-3-methyl-1,2,3,4,5,6-hexahydroazepino[4,5-b]indole] | 98% | 101% | 35% | 100% | 98% | 97%
7 | COc1ccc(/C(C)=C/n2c3c(c4cc(C)ccc42)CCN(C)CC3)cc1F [Compound No. 179, (E)-6-(2-(3-fluoro-4-methoxyphenyl)prop-1-enyl)-1,2,3,4,5,6-hexahydro-3,9-dimethylazepino[4,5-b]indole] | 100% | 77% | 23% | 98% | 45% | 88%
8 | COc1ccc(/C(C)=C/n2c3c(c4cc(C)ccc42)CCN(C)CC3)cc1 [Compound No. 182, (E)-1,2,3,4,5,6-hexahydro-6-(2-(4-methoxyphenyl)prop-1-enyl)-3,9-dimethylazepino[4,5-b]indole] | 102% | 96% | 19% | 101% | 62% | 92%
9 | C/C(=C\n1c2c(c3cc(C)ccc31)CCN(C)CC2)c1cccc(F)c1 [Compound No. 252, (E)-6-(2-(3-fluorophenyl)prop-1-enyl)-3,9-dimethyl-1,2,3,4,5,6-hexahydroazepino[4,5-b]indole] | 87% | 98% | 19% | 96% | 93% | 87%
10 | C/C(=C/n1c2c(c3cc(C)ccc31)CCN(C)CC2)c1cccc(F)c1 [Compound No. 251, (Z)-6-(2-(3-fluorophenyl)prop-1-enyl)-3,9-dimethyl-1,2,3,4,5,6-hexahydroazepino[4,5-b]indole] | 99% | 99% | 35% | 101% | 96% | 95%
11 | C/C(=C\n1c2c(c3cc(Cl)ccc31)CCN(C)CC2)c1ccncc1 [Compound No. 248, (E)-9-chloro-3-methyl-6-(2-(pyridin-4-yl)prop-1-enyl)-1,2,3,4,5,6-hexahydroazepino[4,5-b]indole] | 101% | 103% | 81% | 99% | 88% | 44%
12 | C/C(=C\n1c2c(c3cc(Cl)ccc31)CCN(C)CC2)c1cccnc1 [Compound No. 246, (E)-9-chloro-3-methyl-6-(2-(pyridin-3-yl)prop-1-enyl)-1,2,3,4,5,6-hexahydroazepino[4,5-b]indole] | 99% | 94% | 14% | 98% | 96% | 48%
